Assay results published in patent US20160186066A1, “METHODS AND SYSTEMS FOR PROCESSING CELLULOSIC BIOMASS” (priority 2014, published 2016).
Read-outs that look alike come from different tables or passages of the source.

Key:
[1] = MIBC re-extraction (step #2) of layer from initial MIBC extraction (Example 4); format: physicochemical
Protocol: One part of the upper organic-rich upper layer from Example 3 was removed prior to distillation, extracted with one part by weight of MIBC solvent, by shaking for 3 minutes in a vial via mechanical shaker, followed by allowing to phase separate overnight at 25° C.
Extraction efficiency as measured by the partition coefficient K increased with increasing carbon number for the light alcohol. Glycols EG and PG were not extracted.

[2] = 3 min
Protocol: (§1) The reaction product mixture was extracted with one part of by weight solvent, with mixing for a minimum of three minutes, followed by phase separation overnight at 25° C.

[3] = Comparison of extraction solvents on simulated aqueous reaction product mixture (Examples 5A-5D)
Protocol: as §1

[4] = Extraction of phenols from 1% aqueous solution with toluene or heptane (Examples 5E-5H); conditions: for amount remaining in / lost to the aqueous phase: Ex 5F, 1% MPP in water extracted with heptane; for amount left in / lost to the aqueous layer: Ex 5G, 1% m-cresol solution extracted with toluene
[5] = Solubility of MPP in deionized water (turbidity); format: physicochemical; conditions: 1 wt % solution, room temperature

## OCCO [EG, ethylene glycol]
[1]
  Extr #2 % extract: not extracted

## CC(C)CC(C)O (stereo not drawn) [MIBC, methylisobutylcarbinol]
[2]
  oil/water partition coefficient of extraction solvent components: 48

## CCCc1ccc(O)c(OC)c1 [MPP, 2-methoxy-4-propylphenol]
[3]; Ex 5B, MPP as extraction solvent
  partition coefficient for distribution of extraction solvent between organic and aqueous layers: 612
[3]; Ex 5C, MPP/MIBC mixture as extraction solvent
  oil/water partition coefficient of extraction solvent components: 462
[4]; Ex 5E, 1 wt % MPP in water extracted with one part toluene
  partition coefficient, weight percent in organic layer extract vs. lower layer aqueous fraction: 161.7
[4]
  amount remaining in / lost to the aqueous phase: 0.08 wt %
[5]
  solubility in deionized water (turbidity): only partial solubility

## CC(O)CO (stereo not drawn) [PG, 1,2-propylene glycol]
[1]
  Extr #2 % extract: not extracted

## Cc1cccc(O)c1 [cresol, meta-cresol]
[4]
  amount left in / lost to the aqueous layer: 0.05 wt %

## CCCCCCC [heptane]
[4]
  amount remaining in / lost to the aqueous phase: 0.07 wt %
[4]; Ex 5H, 1% m-cresol solution extracted with heptane
  lost to the aqueous layer: 0.015%

## Cc1ccccc1 [toluene]
[4]
  amount left in / lost to the aqueous layer: 0.04 wt %
